{
  "source": "patent US8524722B2",
  "about": "“Substituted tricyclic compounds and methods of use thereof” (Bayer Intellectual Property GmbH, priority 2007, dated 2013)",
  "data": [
    {"target": "Epidermal Growth Factor Receptor (EGFR) (Homo sapiens (Human), UniProt P00533)", "sequence (P00533 25-1210)": "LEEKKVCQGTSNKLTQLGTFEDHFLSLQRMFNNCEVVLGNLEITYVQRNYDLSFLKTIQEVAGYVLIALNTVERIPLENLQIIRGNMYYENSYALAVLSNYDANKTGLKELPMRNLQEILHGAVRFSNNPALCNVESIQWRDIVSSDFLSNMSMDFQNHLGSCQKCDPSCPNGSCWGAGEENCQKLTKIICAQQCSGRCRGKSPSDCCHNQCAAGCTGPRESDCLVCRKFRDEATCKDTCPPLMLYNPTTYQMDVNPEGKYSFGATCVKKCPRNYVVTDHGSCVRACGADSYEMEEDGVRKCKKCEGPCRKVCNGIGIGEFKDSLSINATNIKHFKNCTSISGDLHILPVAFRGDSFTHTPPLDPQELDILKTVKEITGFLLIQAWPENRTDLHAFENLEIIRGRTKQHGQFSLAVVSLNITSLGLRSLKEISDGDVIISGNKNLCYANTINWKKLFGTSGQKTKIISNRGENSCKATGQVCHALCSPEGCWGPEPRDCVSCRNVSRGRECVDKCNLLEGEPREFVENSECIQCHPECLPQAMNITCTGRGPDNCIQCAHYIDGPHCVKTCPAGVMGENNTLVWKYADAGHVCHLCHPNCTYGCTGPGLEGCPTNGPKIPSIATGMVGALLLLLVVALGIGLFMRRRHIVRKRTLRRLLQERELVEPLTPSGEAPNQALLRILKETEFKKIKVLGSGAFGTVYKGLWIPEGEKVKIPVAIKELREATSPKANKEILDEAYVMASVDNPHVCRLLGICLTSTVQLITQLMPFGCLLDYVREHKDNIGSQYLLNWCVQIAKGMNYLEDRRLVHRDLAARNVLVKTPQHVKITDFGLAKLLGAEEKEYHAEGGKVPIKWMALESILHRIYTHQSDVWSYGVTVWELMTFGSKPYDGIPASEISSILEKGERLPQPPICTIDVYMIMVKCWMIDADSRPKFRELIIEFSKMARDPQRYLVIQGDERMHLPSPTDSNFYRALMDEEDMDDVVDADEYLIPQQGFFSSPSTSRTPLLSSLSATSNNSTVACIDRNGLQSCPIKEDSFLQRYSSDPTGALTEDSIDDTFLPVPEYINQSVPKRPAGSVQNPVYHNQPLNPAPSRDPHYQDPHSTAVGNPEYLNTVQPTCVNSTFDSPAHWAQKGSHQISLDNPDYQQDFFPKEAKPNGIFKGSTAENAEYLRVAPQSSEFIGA", "assay": "EGFR HTRF kinase assay", "type": "biochemical", "details": "not given", "description": "(§1) EGFR inhibitory activity of compounds of the present invention is quantified employing the EGFR HTRF assay as described in the following paragraphs:\n(§2) Epidermal Growth Factor Receptor (EGFR), affinity-purified from human carcinoma A431 cells (Sigma-Aldrich, # E3641), is used as kinase. As substrate for the kinase reaction, the biotinylated peptide biotin-Ahx-[…] (C-terminus in amide form) is used (available from, e.g., Biosynthan GmbH, Berlin-Buch, Germany).\n(§3) EGFR is incubated for 30 min at 22° C. in the presence of different concentrations of test compounds in 5 μl assay buffer [50 mM Hepes/NaOH pH 7.0, 1 mM MgCl2, 5 mM MnCl2, 1.0 mM dithiothreitol, 0.5 mM sodium orthovanadate, 10 μM adenosine triphosphate (ATP), 1 μM substrate, 0.005% (v/v) Tween-20, 1% (v/v) dimethylsulfoxide]. The concentration of EGFR is adjusted depending on the activity of the enzyme lot and is chosen appropriate to have the assay in the linear range; typical concentrations are in the range of 20 U/ml. The reaction is stopped by the addition of 5 μl of a solution of HTRF detection reagents [0.1 μM streptavidine-XLent and 1 nM PT66-Eu-Chelate, an Europium-chelate labelled anti-phosphotyrosine antibody (Perkin Elmer)] in an aqueous EDTA solution [80 mM EDTA, 0.2% (w/v) bovine serum albumin in 50 mM HEPES/NaOH pH 7.0].\n(§4) The resulting mixture is incubated for 1 h at 22° C. to allow the binding of the biotinylated phosphorylated peptide to the streptavidine-XLent and the PT66-Eu-Chelate. Subsequently, the amount of phosphorylated substrate is evaluated by measurement of the resonance energy transfer from the PT66-Eu-Chelate to the streptavidine-XLent. Therefore, the fluorescence emissions at 620 nm and 665 nm after excitation at 350 nm are measured in an HTRF reader, e.g. a Rubystar (BMG Labtechnologies, Offenburg, Germany) or a Viewlux (Perkin-Elmer). The ratio of the emissions at 665 nm and at […] is taken as the measure for the amount of phosphorylated substrate.", "units": {"IC50": "nM"}, "values": [
      {"smiles": "CC(C)N(C)C/C=C/C(=O)N1CCc2c(sc3ncnc(Nc4cc(O)cc(Cl)c4)c23)C1", "note": "[Example 123, 3-Chloro-5-[(7-{(2E)-4-[methyl(1-methylethyl)amino]but-2-enoyl}-5,6,7,8-tetrahydropyrido[4′,3′:4,5]thieno[2,3-d]pyrimidin-4-yl)amino]phenol]", "IC50": 1}
    ]},
    {"target": "Epidermal Growth Factor Receptor (EGFR) (Homo sapiens (Human), UniProt P00533)", "assay": "EGFR HTRF kinase assay", "type": "biochemical", "details": "EGFR affinity-purified from A431 cells, 10 μM ATP, 30 min at 22° C.", "description": "as §1, §2, §3, §4", "units": {"IC50": "nM"}, "values": [
      {"smiles": "O=C(/C=C/CN1CCCOCC1)N1CCc2c(sc3ncnc(Nc4ccc(F)c(Cl)c4)c23)C1", "note": "[Example 5, N-(3-Chloro-4-fluorophenyl)-7-[(2E)-4-(1,4-oxazepan-4-yl)but-2-enoyl]-5,6,7,8-tetrahydropyrido[4′,3′:4,5]thieno[2,3-d]pyrimidin-4-amine]", "IC50": 1},
      {"smiles": "O=C(/C=C/CN1C2CCC1CC2)N1CCc2c(sc3ncnc(Nc4ccc(F)c(Cl)c4)c23)C1", "note": "[Example 10, 7-[(2E)-4-(7-Azabicyclo[2.2.1]hept-7-yl)but-2-enoyl]-N-(3-chloro-4-fluorophenyl)-5,6,7,8-tetrahydropyrido[4′,3′:4,5]thieno[2,3-d]pyrimidin-4-amine]", "IC50": 1.1},
      {"smiles": "CC(C)(CN1CCOCC1)NC/C=C/C(=O)N1CCc2c(sc3ncnc(Nc4ccc(F)c(Cl)c4)c23)C1", "note": "[Example 12, N-(3-Chloro-4-fluorophenyl)-7-{(2E)-4-[(1,1-dimethyl-2-morpholin-4-ylethyl)amino]but-2-enoyl}-5,6,7,8-tetrahydropyrido[4′,3′:4,5]thieno[2,3-d]pyrimidin-4-amine]", "IC50": 1},
      {"smiles": "O=C(/C=C/[C@@H]1CCCN1)N1CCc2c(sc3ncnc(Nc4ccc(F)c(Cl)c4)c23)C1", "note": "[Example 13, N-(3-Chloro-4-fluorophenyl)-7-{(2E)-3-[(2S)-pyrrolidin-2-yl]prop-2-enoyl}-5,6,7,8-tetrahydropyrido[4′,3′:4,5]thieno[2,3-d]pyrimidin-4-amine]", "IC50": 2},
      {"smiles": "CN1CCC[C@H]1/C=C/C(=O)N1CCc2c(sc3ncnc(Nc4ccc(F)c(Cl)c4)c23)C1", "note": "[Example 14, N-(3-Chloro-4-fluorophenyl)-7-{(2E)-3-[(2S)-1-methylpyrrolidin-2-yl]prop-2-enoyl}-5,6,7,8-tetrahydropyrido[4′,3′:4,5]thieno[2,3-d]pyrimidin-4-amine]", "IC50": 1},
      {"smiles": "C[C@@H](Nc1ncnc2sc3c(c12)CCN(C(=O)/C=C/CN(C)C)C3)c1ccccc1", "note": "[Example 23, 7-[(2E)-4-(Dimethylamino)but-2-enoyl]-N-[(1R)-1-phenylethyl]-5,6,7,8-tetrahydropyrido[4′,3′:4,5]thieno[2,3-d]pyrimidin-4-amine]", "IC50": 4.6},
      {"smiles": "COCCN(C/C=C/C(=O)N1CCc2c(sc3ncnc(Nc4ccc(F)c(Cl)c4)c23)C1)CCOC", "note": "[Example 31]", "IC50": 1},
      {"smiles": "CN(C)C(=O)N1CCN(C/C=C/C(=O)N2CCc3c(sc4ncnc(Nc5ccc(F)c(Cl)c5)c34)C2)CC1", "note": "[Example 70]", "IC50": 1},
      {"smiles": "CN(C)C/C=C/C(=O)N1Cc2sc3ncnc(Nc4ccc(F)c(Cl)c4)c3c2C1", "note": "[Example 81, N-(3-Chloro-4-fluorophenyl)-6-[(2E)-4-(dimethylamino)but-2-enoyl]-6,7-dihydro-5H-pyrrolo[3′,4′:4,5]thieno[2,3-d]pyrimidin-4-amine]", "IC50": 12},
      {"smiles": "CN(C)C/C=C/C(=O)N1Cc2sc3ncnc(Nc4ccc(OCc5cccc(F)c5)c(Cl)c4)c3c2C1", "note": "[Example 86, N-{3-Chloro-4-[(3-fluorobenzyl)oxy]phenyl}-6-[(2E)-4-(dimethylamino)but-2-enoyl]-6,7-dihydro-5H-pyrrolo[3′,4′:4,5]thieno[2,3-d]pyrimidin-4-amine]", "IC50": 5},
      {"smiles": "CN(C)C/C=C/C(=O)N1Cc2sc3ncnc(Nc4ccc(OCc5ccccn5)c(Cl)c4)c3c2C1", "note": "[Example 87, N-[3-Chloro-4-(pyridin-2-ylmethoxy)phenyl]-6-[(2E)-4-(dimethylamino)but-2-enoyl]-6,7-dihydro-5H-pyrrolo[3′,4′:4,5]thieno[2,3-d]pyrimidin-4-amine]", "IC50": 19},
      {"smiles": "CC(C)N(C)C/C=C/C(=O)N1CCc2c(oc3ncnc(Nc4ccc(F)c(Cl)c4)c23)C1", "note": "[Example 90, N-(3-Chloro-4-fluorophenyl)-7-{(2E)-4-[methyl(1-methylethyl)amino]but-2-enoyl}-5,6,7,8-tetrahydropyrido[4′,3′:4,5]furo[2,3-d]pyrimidin-4-amine]", "IC50": 1},
      {"smiles": "CN(C)C/C=C/C(=O)N1CCc2c(sc3ncc(C#N)c(Nc4ccc(F)c(Cl)c4)c23)C1", "note": "[Example 95, 4-[(3-Chloro-4-fluorophenyl)amino]-7-[(2E)-4-(dimethylamino)but-2-enoyl]-5,6,7,8-tetrahydrothieno[2,3-b:5,4-c′]dipyridine-3-carbonitrile]", "IC50": 10},
      {"smiles": "CN(C/C=C/C(=O)N1CCc2c(sc3ncnc(Nc4cc(O)c(Cl)c(Cl)c4)c23)C1)C(C)(C)C", "note": "[Example 134, 5-[(7-{(2E)-4-[tert-Butyl(methyl)amino]but-2-enoyl}-5,6,7,8-tetrahydropyrido[4′,3′:4,5]thieno[2,3-d]pyrimidin-4-yl)amino]-2,3-dichlorophenol]", "IC50": 1},
      {"smiles": "CC(C)N(C)C/C=C/C(=O)N1CCc2sc3ncnc(Nc4ccc(Cl)c(Cl)c4)c3c2C1", "note": "[Example 139, N-(3,4-Dichlorophenyl)-6-{(2E)-4-[methyl(1-methylethyl)amino]but-2-enoyl}-5,6,7,8-tetrahydropyrido[3′,4′:4,5]thieno[2,3-d]pyrimidin-4-amine]", "IC50": 9.2},
      {"smiles": "O=C(/C=C/CN1CCCOCC1)N1CCCc2c(sc3ncnc(Nc4ccc(Cl)c(Cl)c4)c23)C1", "note": "[Example 143, N-(3,4-Dichlorophenyl)-8-[(2E)-4-(1,4-oxazepan-4-yl)but-2-enoyl]-6,7,8,9-tetrahydro-5H-pyrimido[5′,4′:4,5]thieno[2,3-c]azepin-4-amine]", "IC50": 1},
      {"smiles": "N#Cc1cnc2sc3c(c2c1Nc1ccc(Cl)c(Cl)c1)CCN(C(=O)/C=C/CN1CCCOCC1)C3", "note": "[Example 148, 4-[(3,4-Dichlorophenyl)amino]-7-[(2E)-4-(1,4-oxazepan-4-yl)but-2-enoyl]-5,6,7,8-tetrahydrothieno[2,3-b:5,4-c′]dipyridine-3-carbonitrile]", "IC50": 4.3},
      {"smiles": "CC(C)N(C)C/C=C/C(=O)N1CCc2c(sc3ncc(C#N)c(Nc4ccc5c(cnn5Cc5cccc(F)c5)c4)c23)C1", "note": "[Example 151, 4-{[1-(3-Fluorobenzyl)-1H-indazol-5-yl]amino}-7-{(2E)-4-[methyl(1-methylethyl)amino]but-2-enoyl}-5,6,7,8-tetrahydrothieno[2,3-b:5,4-c′]dipyridine-3-carbonitrile]", "IC50": 6.4}
    ]}
  ]
}
